Results on 23 compounds are retold here after ChEMBL document CHEMBL1909046, “DrugMatrix in vitro pharmacology data”.

pIC50, pKi: −log10 of the molar value.

In one test the target is Substance-P receptor (Homo sapiens, UniProt P25103). Type of test: cell membranes, CHO, Membrane. The following applies: cho. Further: in other assays of this panel Not Active means under 50% inhibition at 10 µM.
In the next test the target is Nitric oxide synthase 1 (Rattus norvegicus, UniProt P29476). Type of test: tissue-based, Cerebellum. Further: in other assays of this panel Not Active means under 50% inhibition at 10 µM.
Sequence of Nitric oxide synthase 1 (P29476 whole entry): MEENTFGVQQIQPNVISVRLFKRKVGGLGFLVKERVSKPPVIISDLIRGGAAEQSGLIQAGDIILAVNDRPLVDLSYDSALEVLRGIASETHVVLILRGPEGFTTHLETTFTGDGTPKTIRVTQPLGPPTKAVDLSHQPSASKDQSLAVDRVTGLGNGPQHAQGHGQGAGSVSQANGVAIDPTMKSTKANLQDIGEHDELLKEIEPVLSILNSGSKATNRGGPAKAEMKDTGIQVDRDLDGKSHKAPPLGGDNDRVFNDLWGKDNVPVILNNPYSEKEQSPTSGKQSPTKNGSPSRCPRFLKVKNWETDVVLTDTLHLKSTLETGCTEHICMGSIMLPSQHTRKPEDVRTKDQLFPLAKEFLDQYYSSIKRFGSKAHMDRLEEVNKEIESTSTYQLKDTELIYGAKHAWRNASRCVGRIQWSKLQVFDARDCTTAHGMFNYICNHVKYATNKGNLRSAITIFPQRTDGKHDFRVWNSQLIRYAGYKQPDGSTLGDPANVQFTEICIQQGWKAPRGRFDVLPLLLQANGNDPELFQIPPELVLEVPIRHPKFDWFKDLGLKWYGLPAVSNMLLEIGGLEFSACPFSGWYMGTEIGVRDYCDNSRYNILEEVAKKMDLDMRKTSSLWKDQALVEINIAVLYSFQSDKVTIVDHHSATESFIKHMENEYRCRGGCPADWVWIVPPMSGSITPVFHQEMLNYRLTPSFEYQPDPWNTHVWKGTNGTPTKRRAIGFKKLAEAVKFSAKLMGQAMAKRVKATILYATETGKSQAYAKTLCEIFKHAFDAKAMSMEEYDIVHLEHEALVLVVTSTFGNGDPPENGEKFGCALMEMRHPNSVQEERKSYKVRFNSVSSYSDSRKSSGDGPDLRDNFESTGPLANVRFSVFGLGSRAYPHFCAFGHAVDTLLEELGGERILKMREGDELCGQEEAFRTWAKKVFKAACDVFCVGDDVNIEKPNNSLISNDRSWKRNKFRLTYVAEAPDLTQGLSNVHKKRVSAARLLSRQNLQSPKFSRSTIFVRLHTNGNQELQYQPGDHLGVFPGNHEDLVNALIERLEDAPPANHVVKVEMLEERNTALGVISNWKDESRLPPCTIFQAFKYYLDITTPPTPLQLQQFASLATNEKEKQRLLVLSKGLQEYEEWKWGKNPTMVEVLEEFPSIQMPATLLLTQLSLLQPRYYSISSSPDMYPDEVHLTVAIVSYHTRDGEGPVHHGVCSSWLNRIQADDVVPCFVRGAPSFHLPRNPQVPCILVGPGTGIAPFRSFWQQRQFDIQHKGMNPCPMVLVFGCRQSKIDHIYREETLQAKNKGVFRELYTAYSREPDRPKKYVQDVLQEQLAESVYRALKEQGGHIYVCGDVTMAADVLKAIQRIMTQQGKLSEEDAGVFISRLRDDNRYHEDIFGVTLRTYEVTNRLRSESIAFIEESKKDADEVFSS
A further test deals with Acetylcholinesterase (Homo sapiens, UniProt P22303). Kind of test: DRUGMATRIX: Acetylcholinesterase enzyme inhibition (substrate: acetylthiocholine). Type of test: cell-based, HEK293. The following applies: hek293; Not Active = under 50% inhibition at 10 µM.
Sequence of Acetylcholinesterase (P22303 whole entry): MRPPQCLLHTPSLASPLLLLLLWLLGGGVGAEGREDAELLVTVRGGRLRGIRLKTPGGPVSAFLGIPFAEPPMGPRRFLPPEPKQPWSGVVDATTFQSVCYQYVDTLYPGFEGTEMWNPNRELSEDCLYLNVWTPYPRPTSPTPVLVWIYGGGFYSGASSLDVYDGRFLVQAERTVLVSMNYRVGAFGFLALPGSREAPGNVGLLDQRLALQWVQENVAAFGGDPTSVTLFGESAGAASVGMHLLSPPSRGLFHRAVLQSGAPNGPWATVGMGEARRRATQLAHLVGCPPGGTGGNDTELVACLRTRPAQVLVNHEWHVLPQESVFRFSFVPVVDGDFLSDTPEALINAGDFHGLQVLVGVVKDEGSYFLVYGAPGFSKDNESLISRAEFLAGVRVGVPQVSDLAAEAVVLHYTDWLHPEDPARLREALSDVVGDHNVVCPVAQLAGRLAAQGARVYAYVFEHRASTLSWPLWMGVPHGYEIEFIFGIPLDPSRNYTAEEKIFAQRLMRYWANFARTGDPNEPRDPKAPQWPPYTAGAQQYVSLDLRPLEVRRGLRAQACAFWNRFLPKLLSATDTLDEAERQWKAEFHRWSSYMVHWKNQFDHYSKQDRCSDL
Test [1] addresses T1, Alpha-2A adrenergic receptor (Homo sapiens, UniProt P08913).
T1 sequence (P08913 whole entry): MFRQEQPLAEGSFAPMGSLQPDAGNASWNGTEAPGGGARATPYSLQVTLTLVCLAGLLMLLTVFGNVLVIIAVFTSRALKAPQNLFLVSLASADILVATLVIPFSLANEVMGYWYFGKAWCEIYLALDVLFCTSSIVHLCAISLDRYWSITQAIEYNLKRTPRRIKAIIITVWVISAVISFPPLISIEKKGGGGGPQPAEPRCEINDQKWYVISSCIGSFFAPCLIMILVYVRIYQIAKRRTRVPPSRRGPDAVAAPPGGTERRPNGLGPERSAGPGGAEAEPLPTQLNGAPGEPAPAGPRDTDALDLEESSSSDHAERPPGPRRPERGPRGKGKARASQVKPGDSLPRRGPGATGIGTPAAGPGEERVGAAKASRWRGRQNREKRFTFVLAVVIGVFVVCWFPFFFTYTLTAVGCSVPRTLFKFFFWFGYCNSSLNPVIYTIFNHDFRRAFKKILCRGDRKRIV
It counts as cell membranes, Sf9, Membrane.

Test [2] concerns the target T2, Muscarinic acetylcholine receptor M5 (Homo sapiens, UniProt P08912). Further: in other assays of this panel Not Active means under 50% inhibition at 10 µM.
T2 sequence (P08912 whole entry): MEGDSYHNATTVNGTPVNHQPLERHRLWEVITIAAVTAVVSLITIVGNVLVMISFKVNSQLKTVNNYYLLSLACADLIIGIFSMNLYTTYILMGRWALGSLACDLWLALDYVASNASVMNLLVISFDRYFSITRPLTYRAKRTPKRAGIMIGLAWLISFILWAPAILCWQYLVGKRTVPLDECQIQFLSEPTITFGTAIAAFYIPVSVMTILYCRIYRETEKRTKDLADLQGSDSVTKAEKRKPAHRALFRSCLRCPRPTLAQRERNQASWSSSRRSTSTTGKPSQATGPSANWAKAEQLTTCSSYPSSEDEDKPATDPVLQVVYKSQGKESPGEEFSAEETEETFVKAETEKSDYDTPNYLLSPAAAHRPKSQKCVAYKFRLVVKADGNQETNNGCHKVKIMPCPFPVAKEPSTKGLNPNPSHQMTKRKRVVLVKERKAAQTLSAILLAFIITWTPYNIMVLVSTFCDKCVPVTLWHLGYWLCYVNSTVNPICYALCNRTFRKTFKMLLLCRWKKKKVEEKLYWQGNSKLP
It counts as cell membranes, CHO-K1, Membrane. The following applies: for pIC50: read-out: IC50; for pKi: read-out: Ki.

The target of another test is T3, Endothelin-1 receptor (Homo sapiens, UniProt P25101). Further: in other assays of this panel Not Active means under 50% inhibition at 10 µM.
T3 sequence (P25101 whole entry): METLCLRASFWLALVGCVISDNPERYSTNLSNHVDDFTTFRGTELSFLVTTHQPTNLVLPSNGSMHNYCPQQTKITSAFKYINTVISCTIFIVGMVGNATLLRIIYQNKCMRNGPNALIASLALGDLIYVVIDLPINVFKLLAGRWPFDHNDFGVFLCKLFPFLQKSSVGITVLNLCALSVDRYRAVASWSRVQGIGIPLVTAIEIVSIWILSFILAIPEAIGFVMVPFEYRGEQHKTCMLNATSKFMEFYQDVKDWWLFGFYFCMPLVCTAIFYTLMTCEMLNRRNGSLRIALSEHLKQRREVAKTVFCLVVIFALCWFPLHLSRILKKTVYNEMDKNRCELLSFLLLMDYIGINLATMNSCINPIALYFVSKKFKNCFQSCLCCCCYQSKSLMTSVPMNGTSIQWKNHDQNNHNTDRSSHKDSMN
It counts as cell membranes, Membrane. The following applies: cho-k1.

Sequence of Substance-P receptor (P25103 whole entry): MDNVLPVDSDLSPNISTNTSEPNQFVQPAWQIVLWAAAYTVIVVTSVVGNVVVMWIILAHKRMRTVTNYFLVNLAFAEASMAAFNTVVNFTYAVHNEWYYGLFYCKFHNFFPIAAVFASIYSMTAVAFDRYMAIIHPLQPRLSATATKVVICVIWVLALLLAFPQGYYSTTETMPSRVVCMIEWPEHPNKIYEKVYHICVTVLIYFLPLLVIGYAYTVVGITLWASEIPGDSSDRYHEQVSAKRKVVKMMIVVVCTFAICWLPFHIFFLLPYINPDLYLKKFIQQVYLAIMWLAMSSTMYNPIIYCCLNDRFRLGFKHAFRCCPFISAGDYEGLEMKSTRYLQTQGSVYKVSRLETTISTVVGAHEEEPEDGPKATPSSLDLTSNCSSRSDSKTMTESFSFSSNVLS

In the case of `C[C@@H]1C[C@H]2[C@@H]3CCC4=CC(=O)C=C[C@]4(C)[C@@]3(F)[C@@H](O)C[C@]2(C)[C@H]1C(=O)CO` [DESOXIMETASONE], the IC50 result (against Substance-P receptor; against Nitric oxide synthase 1; against Acetylcholinesterase; in test [1] (sf9); in test [2] (cho-k1); on Endothelin-1 receptor) was “Not Active” in each case.

On to `O=C(c1ccccc1C(F)(F)F)N1CCC(Cc2ccccc2)CC1`, for which the IC50 entry (at Substance-P receptor; against Nitric oxide synthase 1; against Acetylcholinesterase; in test [1] (sf9); in test [2] (cho-k1); against Endothelin-1 receptor) was “Not Active” in each case.

With `O=c1cc(N2CCOCC2)oc2c(-c3ccccc3)cccc12` [LY-294002], the IC50 entry (against Substance-P receptor; on Nitric oxide synthase 1; against Acetylcholinesterase; in test [1] (sf9); in test [2] (cho-k1); against Endothelin-1 receptor) was “Not Active” each time.

Take `NC(=O)C[S+]([O-])C(c1ccccc1)c1ccccc1` (configuration not stated) [MODAFINIL]: the IC50 entry (on Substance-P receptor; against Nitric oxide synthase 1; at Acetylcholinesterase; in test [1] (sf9); in test [2] (cho-k1); against Endothelin-1 receptor) was “Not Active” each time.

On to `CC(C)(C)NC(=O)[C@H]1CC[C@H]2[C@@H]3CC[C@H]4NC(=O)C=C[C@]4(C)[C@H]3CC[C@]12C` [FINASTERIDE], for which the IC50 entry (on Substance-P receptor; against Nitric oxide synthase 1; against Acetylcholinesterase; in test [1] (sf9); in test [2] (cho-k1); against Endothelin-1 receptor) was “Not Active” in each case.

`CC(C)NNC(=O)c1ccncc1` [IPRONIAZID]: the IC50 entry (on Substance-P receptor; against Nitric oxide synthase 1; against Acetylcholinesterase; in test [1] (sf9); in test [2] (cho-k1); on Endothelin-1 receptor) was “Not Active” in each case.

With GRAMICIDIN, the IC50 result (against Substance-P receptor; against Nitric oxide synthase 1; at Acetylcholinesterase; in test [1] (sf9); in test [2] (cho-k1)) was “Not Active” each time. The Ki entry (at Substance-P receptor; at Nitric oxide synthase 1; on Acetylcholinesterase; in test [1] (sf9); in test [2] (cho-k1)) was “Not Active” each time. The pIC50 at Endothelin-1 receptor (read-out: IC50) is 5.53. Further, the pKi at Endothelin-1 receptor (read-out: Ki) was 5.74.

For the compound `CC(=O)[C@@]1(O)CC[C@H]2[C@@H]3CCC4=CC(=O)CC[C@]4(C)[C@H]3CC[C@@]21C` [HYDROXYPROGESTERONE], the IC50 entry (on Substance-P receptor; on Nitric oxide synthase 1; against Acetylcholinesterase; in test [1] (sf9); in test [2] (cho-k1); against Endothelin-1 receptor) was “Not Active” each time.

Turning to `O=C(N/N=C/c1ccc([N+](=O)[O-])o1)c1cc([N+](=O)[O-])cc([N+](=O)[O-])c1O` [NIFURSOL], the IC50 result (against Substance-P receptor; against Nitric oxide synthase 1; at Acetylcholinesterase; in test [1] (sf9); in test [2] (cho-k1); against Endothelin-1 receptor) was “Not Active” each time.

With `CC(C)NCC(O)COc1cccc2[nH]ccc12` (configuration not stated) [PINDOLOL], the IC50 result (against Substance-P receptor; against Nitric oxide synthase 1; on Acetylcholinesterase; in test [1] (sf9); in test [2] (cho-k1); against Endothelin-1 receptor) was “Not Active” each time.

With `Oc1cccc(O)c1O` [PYROGALLOL], the IC50 entry (against Substance-P receptor; on Nitric oxide synthase 1; at Acetylcholinesterase; in test [1] (sf9); in test [2] (cho-k1); at Endothelin-1 receptor) was “Not Active” in each case.

With `NNc1nncc2ccccc12` [HYDRALAZINE], the IC50 result (against Substance-P receptor; at Nitric oxide synthase 1; against Acetylcholinesterase; in test [1] (sf9); in test [2] (cho-k1); at Endothelin-1 receptor) was “Not Active” throughout.

Take `C[C@]12C=CC(=O)C=C1CC[C@@H]1[C@@H]2[C@@H](O)C[C@@]2(C)[C@H]1CC[C@]2(O)C(=O)CO` [PREDNISOLONE]: the IC50 result (against Substance-P receptor; against Nitric oxide synthase 1; on Acetylcholinesterase; in test [1] (sf9); in test [2] (cho-k1); on Endothelin-1 receptor) was “Not Active” each time.

In the case of `NCCCC(O)(P(=O)(O)O)P(=O)(O)O` [ALENDRONIC ACID], the IC50 entry (against Substance-P receptor; against Nitric oxide synthase 1; against Acetylcholinesterase; in test [1] (sf9); in test [2] (cho-k1); against Endothelin-1 receptor) was “Not Active” each time.

Turning to `O=C1O[C@H]([C@@H](O)CO)C(O)=C1O` [ASCORBIC ACID], the IC50 entry (at Substance-P receptor; against Nitric oxide synthase 1; against Acetylcholinesterase; in test [1] (sf9); in test [2] (cho-k1); at Endothelin-1 receptor) was “Not Active” each time.

Take `C[n+]1ccccc1/C=N/O.[Cl-]` [PRALIDOXIME CHLORIDE]: the IC50 entry (on Substance-P receptor; against Nitric oxide synthase 1; at Acetylcholinesterase; in test [1] (sf9); in test [2] (cho-k1); at Endothelin-1 receptor) was “Not Active” in each case.

As to `COC1=C(OC)C(=O)C(CCCCCCCCCCO)=C(C)C1=O` [IDEBENONE], the IC50 result (on Substance-P receptor; on Nitric oxide synthase 1; against Acetylcholinesterase; in test [1] (sf9); in test [2] (cho-k1); on Endothelin-1 receptor) was “Not Active” in each case.

Consider `CCC1(CCC(C)C)C(=O)NC(=O)NC1=O` [AMOBARBITAL], for which the IC50 result (at Substance-P receptor; at Nitric oxide synthase 1; at Acetylcholinesterase; in test [1] (sf9); in test [2] (cho-k1); at Endothelin-1 receptor) was “Not Active” each time.

As for `COc1ccc2[nH]cc(CCNC(C)=O)c2c1` [MELATONIN], the IC50 result (at Substance-P receptor; against Nitric oxide synthase 1; against Acetylcholinesterase; in test [1] (sf9); in test [2] (cho-k1); against Endothelin-1 receptor) was “Not Active” each time.

As for `O=C/C=C/c1ccccc1`, the IC50 entry (at Substance-P receptor; against Nitric oxide synthase 1; at Acetylcholinesterase; in test [1] (sf9); in test [2] (cho-k1); at Endothelin-1 receptor) was “Not Active” in each case.

Take `CN(C)CC[C@@H](c1ccc(Cl)cc1)c1ccccn1` [DEXCHLORPHENIRAMINE]: the IC50 result on Substance-P receptor, on Nitric oxide synthase 1, against Acetylcholinesterase and against Endothelin-1 receptor was “Not Active” each time. In addition, the negative logarithm of the IC50 (pIC50) in test [1] (read-out: IC50) was 4.69; in test [2] it was 5.98. The negative-log Ki (pKi) in test [1] (read-out: Ki) was 5.12; in test [2] it was 6.13.

On to `OC(CCCN1CCCCC1)(c1ccccc1)c1ccccc1` [DIPHENIDOL], for which the IC50 entry (against Substance-P receptor; on Nitric oxide synthase 1; against Acetylcholinesterase; in test [1] (sf9); on Endothelin-1 receptor) was “Not Active” each time. In addition, the negative logarithm of the IC50 (pIC50) in test [2] was 5.92. Further, the pKi in test [2] is 6.07.

As to `CC(=O)O[C@H]1C(=O)[C@@]2(C)[C@H]([C@H](OC(=O)c3ccccc3)[C@]3(O)C[C@H](OC(=O)[C@H](O)[C@@H](NC(=O)c4ccccc4)c4ccccc4)C(C)=C1C3(C)C)[C@]1(OC(C)=O)CO[C@@H]1C[C@@H]2O` [PACLITAXEL], the IC50 result (against Substance-P receptor; against Nitric oxide synthase 1; at Acetylcholinesterase; in test [1] (sf9); in test [2] (cho-k1); on Endothelin-1 receptor) was “Not Active” throughout.

The pIC50 is the negative decadic logarithm of the IC50, by convention in mol/L. Usually pKi stands for the Ki on a negative log10 scale, so that one unit is a factor of ten.
